Assay results as given in patent US20100210649A1, “PYRIDAZINONES AND FURAN-CONTAINING COMPOUNDS” (Sloan-Kettering Institute for Cancer Research, priority 2006, published 2010).

Experiments:
in vitro = conditions: human
Protocol: NHBE (normal human bronchiolar epithelial cells) are primary cells obtained from donor lungs and commercially available from Cambrex. The HPL1D (human peripheral lung epithelial) cell line has been immortalized with the SV40 large T-antigen. WI-38: human lung fibroblast cell line. HPLID, NHBE and WI-38 cells will serve as controls in the chemical screens. WT: wildtype; WT*: over-expressed wildtype.
Compounds were tested in dose response studies from […] to 5 nM against several non small cell lung cancer lines: H358, H827, H1118, H1650, H1734, H1975, H2030, and H3255, and were also studied in a 72 hour cytotoxicity assay against the NHBE and WI-38 cell lines.

H3255 = assay: Non Small Cell Lung Cancer proliferation assay (Alamar Blue reduction), H3255; assay type: cell-based, human; conditions: Homo sapiens, NCI-H3255, dose response 10 M to 5 nM; IC50; read-out: Dose Response (uM) H3255
Summary of the method: (§1)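 Compounds are tested at 1% DMSO final concentration against adherent NSCLC cells for 48 h at 37° C, with cytotoxicity measured by Alamar Blue reduction after a further 48 h incubation.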

H827 = assay: Non Small Cell Lung Cancer proliferation assay (Alamar Blue reduction), H827; assay type: cell-based; conditions: Homo sapiens; read-out: Dose Response (uM) H827
Protocol: […] are grown and maintained in Corning 175 cm2 flasks in RPMI 1640 media supplemented with 10% FBS, 1% antibiotic solution, 1% additional glutamine and pyruvate. These cells have a doubling time of 1-2 days. All cell types are adherent and grow in colonies. The cells should be kept at a density between 50,000 cells/mL -500,000 cells/mL to provide for optimum growth and adequate nutrition. The cell line should be maintained at 37° C. in a humidified atmosphere with 5% CO2 in a sterile cell culture incubator.
(§2) Non Small Cell Lung Cancer Proliferation Assay. To perform the assay, the Non Small Cell Lung Cancer lines are diluted in media and plated into 384 well microplates at a final density of 250 cells in […]. To ensure consistency and minimal pipetting error, the cells are plated using the Multidrop 384 with the following settings: Rocker Switch set at 384, Volume 45 and Column 24.
(§3) Low Controls for this assay are made by treating Non Small Cell Lung Cancer cells with 5 ul of staurosporine at 250 uM in 10% DMSO and 1% SDS. [Final concentration in this assay is 25 uM staurosporine in 1% DMSO and 0.1% SDS.]
(§4) High Controls for this assay are made by treating Non Small Cell Lung Cancer cells with 5 ul of 10% DMSO. [Final concentration in this assay is 1% DMSO].
(§5) The remaining wells of the 384 microplate may be treated with different compounds depending on the study. Important Note: All compounds for testing in this assay should be done at the final concentration of 1% DMSO.
(§6) After addition, the cells are placed in cell culture incubator at 37° C. for 48 hours for complete treatment.
(§7) After drug treatment, cytotoxicity is measured by Alamar Blue reduction. 5 μL of Alamar Blue is added to the 384 microplates using the Flexdrop.
(§8) The cells are incubated for 48 hours at 37° C. to complete the Alamar Blue reduction.
(§9) The final step in the assay is to measure the amount of Alamar Blue reduction. […] The Alamar Blue fluorescence is measured at an excitation of 530 nm and emission of 590 nm.
(§10) For the NSCLC project, the cell based assay was screened against a small molecule library of approximately 200,000 compounds. The compound library is stored in our automated robotic freezer (Biophile) at −20° C. in 100% DMSO. Compound freeze and thaw cycles are kept to a minimum. Compounds for use are diluted into the appropriate concentration and plated into 384 well microplates using our custom built low volume 384-well head tool (TPS 384, Apricot Designs Inc., CA, USA). This assay was performed on a fully automated linear track robotic platform (CRS F3 Robot System, Thermo Electron Corp., Ontario, Canada) utilizing several integrated peripherals for plate handling, liquid dispensing, and readout detection. First, non-small cell lung cancer cell lines are dispensed into 384 well microplates (Corning #3712 Tissue Culture Treated Plate, Corning, N.Y., USA) with 5 μL of test compounds at 100 uM in 10% DMSO for screening studies or 1 mM in 10% DMSO to 50 nM in 10% DMSO for dose response studies. The microplates are then placed at 37° C. for 48 hours to complete treatment of cells with compounds. Next, 5 ul of alamar blue was added using a liquid dispenser (Flexprop Precision Dispenser, Perkin Elmer, Mass., USA) and incubated for 48 hours at 37° C. The alamar blue prompt fluorescence was measured on Victor V (Victor^3 V, Perkin Elmer, Mass., USA) and output data files were loaded into ORIS (Oncology Research Informatics System, MSKCC, NY, USA), a screening data acquisition and analysis platform.

H358 = assay: Non Small Cell Lung Cancer proliferation assay (Alamar Blue reduction), H358; assay type: cell-based; conditions: Homo sapiens, NCI-H358; read-out: Dose Response (uM) H358
Protocol: (§11) These cells have a doubling time of 1-2 days. All cell types are adherent and grow in colonies. The cells should be kept at a density between 50,000 cells/mL -500,000 cells/mL to provide for optimum growth and adequate nutrition. The cell line should be maintained at 37° C. in a humidified atmosphere with 5% CO2 in a sterile cell culture incubator.
(§12) Non Small Cell Lung Cancer Proliferation Assay.
as §4
(§13) Important Note: All compounds for testing in this assay should be done at the final concentration of 1% DMSO.
as §6
(§14) After drug treatment, cytotoxicity is measured by Alamar Blue reduction.
as §8, §9
as §10, with “Compounds for use are diluted into the appropriate concentration and plated into 384 well microplates using our custom built low volume 384-well head tool (TPS 384, Apricot Designs Inc., CA, USA).” left out, “First, non-small cell lung cancer cell lines are dispensed into 384 well microplates (Corning #3712 Tissue Culture Treated Plate, Corning, N.Y., USA) with 5 μL of test compounds at 100 uM in 10% DMSO for screening studies or 1 mM in 10% DMSO to 50 nM in 10% DMSO for dose response studies.” left out
(§15) The dose response studies were done with the following standard procedure. First, the cells were counted and dispensed at 250 cells/well into 384-well microplates with compound. The cells were incubated for 48 hours at 37 C to complete treatment, and then alamar blue was added for an additional 48 hours. Finally, alamar blue reduction was measured and the data was loaded into ORIS, our data screening acquisition platform.

H1734 = assay: Non Small Cell Lung Cancer proliferation assay (Alamar Blue reduction), H1734; assay type: cell-based, human; conditions: Homo sapiens, NCI-H1734; read-out: Dose Response (uM) H1734
Protocol: as §11, §12, §4, §13, §6, §14, §8, §9
as §10, with “Compounds for use are diluted into the appropriate concentration and plated into 384 well microplates using our custom built low volume 384-well head tool (TPS 384, Apricot Designs Inc., CA, USA).” left out, “First, non-small cell lung cancer cell lines are dispensed into 384 well microplates (Corning #3712 Tissue Culture Treated Plate, Corning, N.Y., USA) with 5 μL of test compounds at 100 uM in 10% DMSO for screening studies or 1 mM in 10% DMSO to 50 nM in 10% DMSO for dose response studies.” left out
as §15

H1650 = assay: Non Small Cell Lung Cancer proliferation assay (Alamar Blue reduction), H1650; assay type: cell-based, human; conditions: Homo sapiens, NCI-H1650, dose response 10 M to 5 nM; IC50; read-out: Dose Response (uM) H1650
Summary of the method: as §1

H1975 = assay: Non Small Cell Lung Cancer proliferation assay (Alamar Blue reduction), H1975; assay type: cell-based, human; conditions: Homo sapiens, NCI-H1975, dose response 10 M to 5 nM; IC50; read-out: Dose Response (uM) H1975
Summary of the method: as §1

H1118 = assay: Non Small Cell Lung Cancer proliferation assay (Alamar Blue reduction), H1118; assay type: cell-based; conditions: Homo sapiens; read-out: Dose Response (uM) H1118
Protocol: as §2, §3, §4, §5, §6, §7, §8, §9, §10, §15

H2030 = assay: Non Small Cell Lung Cancer proliferation assay (Alamar Blue reduction), H2030; assay type: cell-based, human; conditions: Homo sapiens, NCI-H2030, dose response 10 M to 5 nM; IC50; read-out: Dose Response (uM) H2030
Summary of the method: as §1

Compound | IC50 (H3255) [µM] | IC50 (H827) [µM] | IC50 (H358) [µM] | IC50 (H1734) [µM] | IC50 (H1650) [µM] | IC50 (H1975) [µM] | IC50 (H1118) [µM] | IC50 (H2030) [µM] | IC50 at 72 h (in vitro; CytoTox (uM) NHBE) [µM] | IC50 at 72 h (in vitro; CytoTox (uM) WI-38) [µM]
N/N=C1\C=NN(c2ccccc2)C(=O)C1Cl (stereo not shown) [compound 257023] | > 10 | > 10 | > 10 | > 10 | > 10 | > 10 | > 10 | > 10 | > 10 | > 10
Cc1cccc(-n2ncc(I)cc2=O)c1 [compound 267086] | > 10 | – | > 10 | > 10 | > 10 | 6.76 | – | > 10 | > 10 | > 10
CCN(CC)c1c(Cl)cnn(-c2cccc(C)c2)c1=O [compound 267076] | > 10 | – | > 10 | > 10 | > 10 | > 10 | – | > 10 | > 10 | > 10

The next lines start with results.

IC50 (H3255) [µM] | IC50 (H827) [µM] | IC50 (H358) [µM] | IC50 (H1734) [µM] | IC50 (H1650) [µM] | IC50 (H1975) [µM] | IC50 (H1118) [µM] | IC50 (H2030) [µM] | Compound | IC50 at 72 h (in vitro; CytoTox (uM) NHBE) [µM] | IC50 at 72 h (in vitro; CytoTox (uM) WI-38) [µM]
> 10 | > 10 | > 10 | > 10 | > 10 | > 10 | > 10 | > 10 | O=c1c(Br)c(SCc2ccccc2)cnn1-c1ccccc1 [compound 257021] | > 10 | > 10
> 10 | – | > 10 | > 10 | > 10 | > 10 | – | > 10 | Cc1cccc(-n2nc(OCCCNC(=O)CCC(=O)O)c(Cl)c(Cl)c2=O)c1 [compound 273632] | > 10 | > 10
> 10 | – | > 10 | > 10 | > 10 | > 10 | – | > 10 | CCN(CC)c1cnn(-c2cccc(C)c2)c(=O)c1Cl [compound 267074] | > 10 | > 10
